The values below come from paper PMC12527922, “Cocaine chemogenetics blunts drug-seeking by synthetic physiology” (Nature, 2025).

In data set [1] the target is T1, coca-GlyR (Homo sapiens, UniProt P23415+P36544, G175K/L141G/Y217F).
T1 construct: expressed in transfected cells; host or cells: HEK293 (ATCC CRL-1573), pcDNA3.1
The data set can be described thus: Whole-cell voltage-clamp in HEK293 cells, coca-GlyR. The data set is classed as cell-based. As to conditions: transfected HEK293. On the procedure:
Channel mutants and agonists were further characterized in whole-cell voltage-clamp experiments performed on HEK293 cells. At passage 44–48, cells were plated at low density (1 × 10^3 per cm^2) on poly-D-lysine-coated glass coverslips, then transfected in 10 cm^2 wells using the Fugene 6 transfection reagent (Roche) with DNA plasmids containing both an ion channel cDNA (pcDNA3.1, 2 µg per well) and cDNA for GFP (pCMV, 0.1 μg per well), followed by replacement of the medium after 3 h. Recordings were made 24–72 h after transfection.
Electrophysiological recordings were performed in whole-cell voltage-clamp mode, on an inverted fluorescence microscope (Olympus IX-51) using pClamp software and a […] amplifier (Molecular Devices). Electrophysiological data was filtered at 4 kHz, digitized at 10 kHz using a Digidata 1400 interface (Molecular Devices), recorded on a PC (Dell) and analysed using custom MATLAB software (MathWorks). Solutions were delivered from a gravity fed perfusion system through a capillary tube placed approximately […] from the recorded cell using an eight-way manifold pinch valve system (Nanion), which was controlled from the acquisition software. This allowed for up to seven concentrations of agonist to be tested. […]

The subject of data set [2] is rats with coca-5HT3 in the LHb. The data set can be described thus: Cocaine IVSA (intravenous self-administration). The data set is classed as in vivo, rat. As to conditions: Coca-5HT3 rats.
Data set [3] has as its system control rats. The data set can be described thus: Cocaine IVSA (intravenous self-administration), control rats. The data set is classed as in vivo, rat.
Data set [4] relates to DAT. The following applies: endogenous target; cited from earlier work.
The conditions of data set [5]: estimated from self-administration; cited from earlier work.

T1 sequence (P36544+P23415 fused P36544:L141G/P36544:G175K/P36544:Y217F): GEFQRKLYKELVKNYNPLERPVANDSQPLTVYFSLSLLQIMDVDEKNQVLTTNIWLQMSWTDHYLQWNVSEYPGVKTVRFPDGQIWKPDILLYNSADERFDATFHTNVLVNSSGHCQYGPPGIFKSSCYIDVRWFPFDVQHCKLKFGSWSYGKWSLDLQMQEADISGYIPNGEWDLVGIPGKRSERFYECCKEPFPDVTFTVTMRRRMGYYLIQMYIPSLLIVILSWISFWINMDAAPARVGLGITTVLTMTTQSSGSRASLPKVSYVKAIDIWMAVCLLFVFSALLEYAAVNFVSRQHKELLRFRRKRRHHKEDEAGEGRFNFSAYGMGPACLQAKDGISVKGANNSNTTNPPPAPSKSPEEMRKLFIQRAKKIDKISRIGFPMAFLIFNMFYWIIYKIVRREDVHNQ

As for `COC(=O)[C@H]1[C@@H](OC(=O)c2ccccc2)C[C@@H]2CC[C@H]1N2C` [cocaine], the “currents from coca-GlyR” value in data set [1] was “large, sustained currents”. Moreover, the “Sheet 3g, Mean (per-rat counts at each dose)” value in data set [2] (Dose 0.0625) is 32.0909; in data set [2] (Dose 0.125) it was 43.1818; in data set [2] (Dose 0.25), 30.2727; in data set [2] (Dose 0.5), 19.0909; in data set [2] (Dose 1), 10.8182; in data set [3] (Dose 0.0625), 37.2. Moreover, the “Sheet 3g, Mean (per-rat counts at each dose)” value in data set [3] (Dose 0.125) is 69.7333; in data set [3] (Dose 0.25), 50.5385; in data set [3] (Dose 0.5), 27.6667; in data set [3] (Dose 1) it was 15. Moreover, the “Sheet 3h, Mean (sheet 3g count x dose, intake)” value in data set [2] (Dose 0.0625) was 2.006; in data set [2] (Dose 0.125) it was 5.398; in data set [2] (Dose 0.25), 7.568; in data set [2] (Dose 0.5) it was 9.545; in data set [2] (Dose 1), 10.8182; in data set [3] (Dose 0.0625), 2.325. Moreover, the “Sheet 3h, Mean (sheet 3g count x dose, intake)” value in data set [3] (Dose 0.125) is 8.717; in data set [3] (Dose 0.25), 12.6346; in data set [3] (Dose 0.5), 13.8333; in data set [3] (Dose 1), 15. In addition, the “range of cocaine affinities for DAT” value in data set [4] is 0.23 to 2.0 µM. Moreover, in data set [5], the brain cocaine concentrations was 2.5 to 20 µM.
